# Like-named read-outs stand apart in the source and are kept apart here.
# Format: physicochemical
# Description: A 10 mL solution of M4N at a concentration of about 10 mg/mL in 40% BP-β-CD was made as follows. About 10 mL of the 40% HP-β-CD solution were added to a glass beaker containing a stir bar. The beaker was placed on a magnetic plate and the stir bar was set to stir at medium speed. About […] of M4N were slowly added to the 40% HP-β-CD in the center of the beaker with the aid of a spatula. The M4N/40% HP-β-CD mixture was stirred for 2 hr or until all M4N was uniformly suspended without any clumps being present. The M4N/40% HP-β-CD mixture was optionally heated at 80° C. for about 30 min. (or longer if a larger volume of solution was desired, for example, 1 hr at 80° C. for 100 mL of the M4N/HP-β-CD mixture), or longer as needed to ensure complete dissolution of M4N. […] The final M4N/40% HP-β-CD solution was stored at room temperature and was kept protected from light. This process may be scaled up or down to obtain the requisite volume or concentration of M4N. Formulations containing M4N in other cyclodextrin solutions may be similarly made, such as, for example, by substituting HP-β-CD in the process described above with other cyclodextrins. […]
# A 10 mL solution of M4N at a concentration of about 10 mg/mL in 50% HP-β-CD/0.5% HPMC was made as follows. About 10 mL of the 50% HP-β-CD/0.5% HPMC solution were added to a glass beaker containing a stir bar. The beaker was placed on a magnetic plate and the stir bar was set to stir at medium speed. About 100 mg of M4N were slowly added to the 50% HP-β-CD/0.5% HPMC in the center of the beaker with the aid of a spatula. The M4N/50% HP-β-CD/0.5% HPMC mixture was stirred for 24 hr or until all M4N was uniformly suspended without any clumps being present. The M4N/50% HP-β-CD/0.5% HPMC mixture was heated at about 90° C. for about 30 min. (or longer if a larger volume of solution was desired, for example, 1 hr at 90° C. for 500 mL of the M4N/50% HP-β-CD/0.5% HPMC mixture), or longer as needed to ensure complete dissolution of M4N. […] The final M4N/50% HP-β-CD/0.5% HPMC solution was stored at room temperature and was kept protected from light.
# A 10 mL solution of M4N at a concentration of about 20 mg/mL in 5% EC (w/v) (the “EC formulation”) was made as follows. About 10 mL of 5% EC formulation, made as described above, were added to a glass beaker containing a stir bar. The beaker was placed on a magnetic plate and the stir bar was set to stir at medium speed, and covered with a round Teflon® cover. About 200 mg of M4N were slowly added to the 5% EC formulation in the center of the beaker with the aid of a spatula to prevent M4N from sticking to the beaker wall. The M4N/EC mixture was stirred for 2 hr or until all M4N had dissolved or was uniformly suspended without any clumps being present. The M4N/EC mixture was heated at about 60° C. for about 30 min. (or longer if a larger volume of solution was desired, for example, 1 hr at 60° C. for 500 mL of the M4N/EC mixture), or longer as needed to ensure complete dissolution of M4N. […] The final M4N/EC solution was stored at room temperature and was kept protected from light.
# A 10 mL solution of M4N at a concentration of about 50 mg/mL in sesame oil was made as follows. About 10 mL of sesame oil were added to a glass beaker containing a stir bar. The beaker was placed on a magnetic plate and the stir bar was set to stir at medium speed. About 500 mg of M4N were slowly added to the sesame oil in the center of the beaker with the aid of a spatula to prevent M4N from sticking to the beaker wall. The M4N/sesame oil mixture was stirred for about 2 hr or until all M4N had dissolved or was uniformly suspended without any clump being present. The M4N/sesame oil mixture was heated at about 60° C. for about 30 min. (or longer if a larger volume of solution was desired, for example, 1 hr at 60° C. for 500 mL of the M4N/sesame oil mixture), or longer as need to ensure complete dissolution of M4N. […]
smiles,measurement,setting,value
"COc1ccc(C[C@@H](C)[C@@H](C)Cc2ccc(OC)c(OC)c2)cc1OC [Formulation M4N, meso-1,4-bis(3,4-dimethoxyphenyl)-2,3-dimethylbutane]",Dissolution After Cool-Down,M4N 50 mg/mL in Corn Oil,Y
same,Dissolution After Cool-Down,M4N 50 mg/mL in Mineral Oil,Y
same,Dissolution After Cool-Down,M4N 50 mg/mL in Sesame Oil,Y
same,Dissolution After Cool-Down,M4N 50 mg/mL in Soybean Oil,N
same,Dissolution After Cool-Down,"M4N 52 mg/mL in 40% Peppermint Oil, 40% PEG 400, 20% Glycerol",N
same,Dissolution After Cool-Down,"M4N 59 mg/mL in 45% Peppermint Oil, 45% PEG 400, 10% Glycerol",N
same,Dissolution After Cool-Down,"M4N 60 mg/mL in 0.4% (v/v) Cinnamaldehyde, 5% (w/v) Beeswax, 94.5% (v/v) Olive Oil, cell wraps: Creamy solid",Creamy
same,Dissolution After Cool-Down,"M4N 60 mg/mL in 33% Peppermint Oil, 33% Tween ® 20, 33% PEG 400",Y
same,Dissolution After Rotation,"M4N 60 mg/mL in 50% HP-β-CD, 0.5% CMC",Suspension
same,Dissolution After Cool-Down,"M4N 60 mg/mL in 50% Peppermint Oil, 50% PEG 300",Y
same,Dissolution After Cool-Down,"M4N 60 mg/mL in 50% Peppermint Oil, 50% PEG 400",Y
same,Dissolution After Cool-Down,"M4N 60 mg/mL in 50% Peppermint Oil, 50% Sesame Oil",Y
same,Dissolution After Cool-Down,"M4N 60 mg/mL in 50% Peppermint Oil, 50% Tween ® 20",Y
same,Dissolution After Cool-Down,"M4N 60 mg/mL in 60% Peppermint Oil, 40% PEG 300",Y
same,Dissolution After Cool-Down,"M4N 60 mg/mL in 60% Peppermint Oil, 40% PEG 400",N
same,Dissolution After Cool-Down,"M4N 60 mg/mL in 80% Olive Oil, 20% Soybean Oil",N
same,Dissolution After Cool-Down,"M4N 60 mg/mL in 85% Sesame Oil, 15% Tween ® 20",N
same,Dissolution After Cool-Down,M4N 60 mg/mL in Corn Oil,Y
same,Dissolution After Cool-Down,M4N 60 mg/mL in Peppermint Oil,Y
same,Dissolution After Cool-Down,"M4N 100 mg/g in 50% Soybean Oil, 50% Beeswax (w/w), cell wraps: waxy solid",waxy
same,Dissolution After Rotation,M4N 100 mg/mL in 2.3% HPMC,N
same,Dissolution After Cool-Down,M4N 100 mg/mL in 5% EC in EtOH,N
same,Dissolution After Rotation,M4N 100 mg/mL in 5% EC in EtOH,N
same,Dissolution After Rotation,M4N 100 mg/mL in 15% α-CD,N
same,Dissolution After Heating at X° C.,"M4N 100 mg/mL in 15% α-CD, 90°",N at 90°
same,Dissolution After Rotation,M4N 100 mg/mL in 30% HP-β-CD,N
same,Dissolution After Heating at X° C.,"M4N 100 mg/mL in 30% HP-β-CD, 90°",N at 90°
same,Dissolution After Rotation,M4N 100 mg/mL in 40% HP-β-CD,N
same,Dissolution After Heating at X° C.,"M4N 100 mg/mL in 40% HP-β-CD, 80°",N at 80°
same,Dissolution After Rotation,M4N 100 mg/mL in 50% HP-β-CD,N
same,Dissolution After Heating at X° C.,"M4N 100 mg/mL in 50% HP-β-CD, 90°",N at 90°
same,Dissolution After Cool-Down,"M4N 100 mg/mL in 50% Peppermint Oil, 50% PEG 400",N
same,Dissolution After Cool-Down,"M4N 100 mg/mL in Camillia Oil, cell wraps: Creamy solid",Creamy
same,Dissolution After Cool-Down,M4N 100 mg/mL in Corn Oil,N
same,Dissolution After Cool-Down,"M4N 100 mg/mL in Eugenol, Beeswax, Olive Oil, 0.5% (v/v) Eugenol, cell wraps: Creamy solid",Creamy
same,Dissolution After Cool-Down,M4N 100 mg/mL in Mineral Oil,N
same,Dissolution After Cool-Down,M4N 100 mg/mL in Peppermint Oil,Y
same,Dissolution After Cool-Down,"M4N 125 mg/mL in 50% Peppermint Oil, 50% PEG 300",N
same,Dissolution After Cool-Down,"M4N 125 mg/mL in 50% Peppermint Oil, 50% PEG 400",N
same,Dissolution After Cool-Down,"M4N 125 mg/mL in 50% Peppermint Oil, 50% Tween ® 20",N
same,Dissolution After Cool-Down,M4N 125 mg/mL in Peppermint Oil,Y
same,Dissolution After Rotation,"M4N 150 mg/g in 84% HP-β-CD, 1% HPMC, Lyophilized",powder
same,Dissolution After Rotation,"M4N 185 mg/g in 81.5% (w/w) HP-β-CD, Lyophilized",powder
same,Dissolution After Cool-Down,"M4N 200 mg/g in 75% Soybean Oil, 25% Beeswax (w/w), cell wraps: waxy solid",waxy
same,Dissolution After Cool-Down,"M4N 200 mg/g in 90% Olive Oil, 10% Beeswax (w/w), cell wraps: waxy solid",waxy
same,Dissolution After Cool-Down,"M4N 200 mg/g in 90% Soybean Oil, 10% Beeswax (w/w), cell wraps: waxy solid",waxy
same,Dissolution After Cool-Down,"M4N 200 mg/g in 95% Olive Oil, 5% Beeswax (w/w), cell wraps: waxy solid",waxy
same,Dissolution After Cool-Down,"M4N 200 mg/g in 95% Soybean Oil, 5% Beeswax (w/w), cell wraps: waxy solid",waxy
same,Dissolution After Cool-Down,M4N 200 mg/mL in Mineral Oil,N
same,Dissolution After Cool-Down,"PEG 300 100%, M4N 25 mg/mL, after heating at 50° C.",Y
same,Dissolution After Cool-Down,"PEG 400 100%, M4N 25 mg/mL, after heating at 50° C.",Y
same,Dissolution After Cool-Down,"PEG 400 100%, M4N 30 mg/mL, after heating at 50° C.",Y
same,Dissolution After Cool-Down,"PEG 400 100%, M4N 40 mg/mL, after heating at 50° C.",Y
same,Dissolution After Cool-Down,"PEG 400 100%, M4N 50 mg/mL, after heating at 60° C.",Y
same,Dissolution After Cool-Down,"PEG 400 100%, M4N 100 mg/mL, after heating at 60° C.",N
same,Dissolution After Cool-Down,"PEG 400 mono-laurate 100%, M4N 20 mg/mL, after heating at 50° C.",Y
same,Dissolution After Cool-Down,"PEG 400 mono-laurate 100%, M4N 50 mg/mL, after heating at 50° C.",Y
same,Dissolution After Cool-Down,"Propylene Glycol 100% (w/v), M4N 1 mg/mL, after heating at 55° C.",Y
same,Dissolution After Cool-Down,"Propylene Glycol 100% (w/v), M4N 10 mg/mL, after heating at 55° C.",Y
same,Dissolution After Cool-Down,"Propylene Glycol 100% (w/v), M4N 20 mg/mL, after heating at 55° C.",Y
